One experiment has as its target T1, S. aureus TarB (Staphylococcus aureus, UniProt Q2G2X4).
T1 construct: made in house
T1 sequence (Q2G2X4 1-367): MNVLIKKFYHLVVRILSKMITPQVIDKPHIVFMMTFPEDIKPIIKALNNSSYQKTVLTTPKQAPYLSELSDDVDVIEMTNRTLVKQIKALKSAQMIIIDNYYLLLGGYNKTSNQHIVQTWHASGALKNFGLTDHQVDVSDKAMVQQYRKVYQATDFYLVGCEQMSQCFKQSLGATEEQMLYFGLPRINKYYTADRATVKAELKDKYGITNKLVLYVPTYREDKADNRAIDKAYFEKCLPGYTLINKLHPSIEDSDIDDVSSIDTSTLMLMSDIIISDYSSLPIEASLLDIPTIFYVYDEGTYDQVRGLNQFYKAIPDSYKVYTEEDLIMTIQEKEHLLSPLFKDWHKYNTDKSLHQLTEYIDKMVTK
The experiment in a line: In vitro enzyme inhibition assay, TarB (radiometric). It is filed as biochemical. As to conditions: targocil 50 μg/mL; enzyme 200 nM. As to the method:
(§1) S. aureus TarB, D, F, I, and L were cloned, overexpressed and purified as described previously (S. Brown, Y. H. Zhang, S. Walker, Chemistry & Biology 15, 12, Jan. 2008.) Radiometric in vitro assays were run to test the inhibitory effects of targocil on Tar B, D, F, and L, while TarI was assayed for targocil inhibition using an HPLC assay using conditions similar to those previously reported (ibid). See below for exact reaction conditions. […] In each case, a reaction with no targocil served as a negative control (active enzymatic reaction) and a reaction with heat-treated enzyme served as a positive control (no enzymatic reaction). Targocil was incubated with all reaction components except the substrates at room temperature. After 10 minutes, substrates were added and the reactions were allowed to proceed for 60 minutes. The reactions were quenched with DMF and the products were imaged/monitored as previously described (ibid).

Another experiment deals with T2, S. aureus TarL (Staphylococcus aureus, UniProt Q2G1B8).
T2 construct: made in house
T2 sequence (Q2G1B8 1-562): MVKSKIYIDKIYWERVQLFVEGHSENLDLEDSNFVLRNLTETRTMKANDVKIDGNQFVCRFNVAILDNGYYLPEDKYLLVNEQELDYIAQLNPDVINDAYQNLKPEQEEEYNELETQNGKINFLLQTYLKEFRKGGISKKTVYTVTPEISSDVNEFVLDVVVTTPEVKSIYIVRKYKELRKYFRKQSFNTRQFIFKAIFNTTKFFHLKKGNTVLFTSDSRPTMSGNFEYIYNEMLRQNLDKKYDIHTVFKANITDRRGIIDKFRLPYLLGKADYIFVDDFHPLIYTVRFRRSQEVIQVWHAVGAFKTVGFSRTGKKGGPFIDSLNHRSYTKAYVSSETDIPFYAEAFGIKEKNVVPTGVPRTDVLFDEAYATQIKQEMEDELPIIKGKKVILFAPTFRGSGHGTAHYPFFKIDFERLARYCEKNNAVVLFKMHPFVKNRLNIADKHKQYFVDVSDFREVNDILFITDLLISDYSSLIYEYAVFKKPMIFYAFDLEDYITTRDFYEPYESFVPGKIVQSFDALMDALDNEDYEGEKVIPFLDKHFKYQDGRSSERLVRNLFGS
Kind of experiment: In vitro enzyme inhibition assay, TarL (radiometric). It is filed as biochemical. The note with it: targocil 50 μg/mL; enzyme 200 nM. As to the method:
(A) TarL reaction with heat-treated enzyme; (B) TarL reaction with active enzyme; (C) TarL reaction with 5 μM targocil; (D) TarL reaction with 50 μM targocil; (E) TarL reaction with 100 μM targocil.
as §1
TarL in vitro inhibition assay protocol and data. Each 3 μL reaction contained 1 μM [14C] (GroP)2-ManNAc-β-(1,4)-GlcNAc-pp-farnesyl, 50 μM CDP-ribitol, 20 mM Tris base pH 7.5, 100 mM NaCl, 10 mM MgCl2, 200 nM TarL and either 5, 50, or 100 μM targocil. […]

The next experiment concerns S. aureus RN4220. The experiment in a line: Kill curve analysis. As to conditions: 10^6 cfu/mL S. aureus RN4220, 30° C. It is filed as cell-based, Staphylococcus aureus. As to the method: (A) Targocil MIC data for a panel of Gram-positive strains, including MRSA clinical isolates B5271 and 5340A. Growth was monitored in triplicate after 12 h at 28° C. using optical density. (B) Two dimensional drug interaction analysis between tunicamycin and targocil grown for 18 h at 30° C. […] At higher concentrations, tunicamycin is toxic because it inhibits cell wall biosynthesis. […] Varying concentrations of drug were added to […] of S. aureus RN4220 after 5 h and cell count was monitored over time at 30° C. […] Cells were grown at 28° C. for 12 h and monitored for growth using optical density (OD600). Data were normalized to the DMSO controls for each strain. (E) Two classes of mutants were examined: phage resistant (m1 3) and phage sensitive (m4-5).

Experiment [1] relates to S. aureus RN4220 TarG:W73C (m5). Kind of experiment: MIC analysis of RN4220 carrying the mutant tarG allele TarG:W73C. It is filed as cell-based, Staphylococcus aureus. As to conditions: mutant allele exchanged into RN4220. The source says:
Therefore, we conclude that TarG is a target of targocil. […] (Davidson A L, Dassa E, Orelle C, & Chen J (2008) Microbiology and Molecular Biology Reviews 72:317-364) In addition to functioning as antibiotics, inhibitors such as targocil, and derivatives thereof, could be valuable tools for mechanistic and structural analyses of ABC transporters.

Entries after “also recorded” stand apart in the source; their conditions may differ.

Consider `CCN(CC)c1nc2c(S(=O)(=O)c3ccccc3)nnn2c2ccc(Cl)cc12` [7-chloro-N,N-diethyl-3-(phenylsulfonyl)-[1,2,3]triazolo[1,5-a]quinazolin-5-amine], for which, at S. aureus TarB, the “inhibition of TarB” value was “None of these enzymes was inhibited”. The “inhibition of TarL” value at S. aureus TarL is “None of these enzymes was inhibited”. The “mode of action in kill curve (bacteriostatic or bactericidal)” value with S. aureus RN4220 is recorded as “bacteriostatic”. Also, the “resistance to targocil of TarG:W73C strain” value in experiment [1] was “fully resistant; also recorded: confer resistance”.

Values taken from patent US8598342B2, “Methods and compounds for antimicrobial intervention” (President and Fellows of Harvard College, priority 2008, dated 2013).
